Source: patent US20100055179A1, “Composition of and Method for Preparing Orally Disintegrating Tablets Containing a High Dose of Pharmaceutically Active Ingredients” (MALLINCKRODT INC., priority 2006, published 2010)

Experiments:
Assay type in all cases: physicochemical
[1] = In vitro disintegration test (USP Test No. 701)
Experimental: (3) In vitro disintegration test-The disintegration time of the tablets was determined according to U.S. Pharmacopeia, Test No. 701.

[2] = Wetting test (simulated in vivo disintegration time)
Experimental: (4) Wetting Test-One Whatman filter disc (21 mm in diameter) was placed in each well of a Corning 12-well polystyrene microplate (22 mm in diameter). One and a half […] of Sensient Blue #1 dye solution (similar to in vivo conditions-tongue surface) was then added into each well. An ODT tablet was carefully placed on the surface of the wet paper disc in each well using a pair of forceps, tablet face flat on the filter paper. Finally, the total wetting time was recorded as the time required for the blue dye solution to cover the surface of the tablet as simulated in vivo disintegration time.

[3] = Friability test (USP <1216>)
Experimental: (2) Friability test-The friability test method was performed by a Varian Friabilator according to the USP tablet friability method described in <1216> Tablet Friability of the General chapters describing General Test Assays.

[4] = Hardness test (tablet crushing load, Varian VK-200)
Experimental: (1) Hardness test-The ODT tablet crushing load, which is the force (kilopond, kP) required to break a tablet into halves by compression in the diametral direction, was measured with a hardness tester (Varian Hardness Tester, VK-200).

[5] = 0.3% (w/w) APAP as COMPAP with Formulation A granules, Example 4
[6] = 0.3% (w/w) regular APAP blended with Formulation A granules, 400 mg tablet, Example 2
[7] = 0.3% (w/w) regular APAP wet-granulated with Formulation A, Example 3
[8] = 1.0% (w/w) APAP as COMPAP with Formulation A granules, Example 4
[9] = 1.0% (w/w) regular APAP blended with Formulation A granules, 400 mg tablet, Example 2
[10] = 1.0% (w/w) regular APAP wet-granulated with Formulation A, Example 3
[11] = 10.0% (w/w) APAP as COMPAP with Formulation A granules, Example 4
[12] = 10.0% (w/w) regular APAP blended with Formulation A granules, 400 mg tablet, Example 2
[13] = 10.0% (w/w) regular APAP wet-granulated with Formulation A, Example 3
[14] = 15.0% (w/w) regular APAP blended with Formulation A granules, 400 mg tablet, Example 2
[15] = 20.0% (w/w) APAP as COMPAP with Formulation A granules, Example 4
[16] = 20.0% (w/w) regular APAP wet-granulated with Formulation A, Example 3
[17] = 30.0% (w/w) APAP as COMPAP with Formulation A granules, Example 4
[18] = 30.0% (w/w) regular APAP wet-granulated with Formulation A, Example 3
[19] = 40.0% (w/w) APAP as COMPAP with Formulation A granules, Example 4
[20] = 50.0% (w/w) APAP as COMPAP with Formulation A granules, Example 4

USP-DIT (in vitro disintegration time, USP method) [1, 5]: 26 s
USP-DIT (in vitro disintegration time, USP method) [1, 6]: 18 s
USP-DIT (in vitro disintegration time, USP method) [1, 7]: 12 s
USP-DIT (in vitro disintegration time, USP method) [1, 8]: 15 s
USP-DIT (in vitro disintegration time, USP method) [1, 9]: 20 s
USP-DIT (in vitro disintegration time, USP method) [1, 10]: 12 s
USP-DIT (in vitro disintegration time, USP method) [1, 11]: 11 s
USP-DIT (in vitro disintegration time, USP method) [1, 12]: 9 s
USP-DIT (in vitro disintegration time, USP method) [1, 13]: 18 s
USP-DIT (in vitro disintegration time, USP method) [1, 14]: 10 s
USP-DIT (in vitro disintegration time, USP method) [1, 15]: 11 s
USP-DIT (in vitro disintegration time, USP method) [1, 16]: 19 s
USP-DIT (in vitro disintegration time, USP method) [1, 17]: 16 s
USP-DIT (in vitro disintegration time, USP method) [1, 18]: 28 s
USP-DIT (in vitro disintegration time, USP method) [1, 19]: 16 s
USP-DIT (in vitro disintegration time, USP method) [1, 20]: 16 s
Wetting time [2, 5]: 15 s
Wetting time [2, 6]: 12 s
Wetting time [2, 7]: 18 s
Wetting time [2, 8]: 16 s
Wetting time [2, 9]: 11 s
Wetting time [2, 10]: 21 s
Wetting time [2, 11]: 22 s
Wetting time [2, 12]: 10 s
Wetting time [2, 13]: 30 s
Wetting time [2, 14]: 9 s
Wetting time [2, 15]: 30 s
Wetting time [2, 16]: 25 s
Wetting time [2, 17]: 45 s
Wetting time [2, 18]: 21 s
Wetting time [2, 19]: 65 s
Wetting time [2, 20]: 117 s
Friability [3, 5]: 0.5%
Friability [3, 6]: 0.02%
Friability [3, 7]: 0.3%
Friability [3, 8]: 0.3%
Friability [3, 9]: 0.03%
Friability [3, 10]: 0.2%
Friability [3, 11]: 0.5%
Friability [3, 12]: 0.46%
Friability [3, 13]: 0.0%
Friability [3, 14]: 0.08%
Friability [3, 15]: 0.0%
Friability [3, 16]: 0.2%
Friability [3, 17]: 0.5%
Friability [3, 18]: 0.0%
Friability [3, 19]: 0.0%
Friability [3, 20]: 0.3%
Hardness [4, 5]: 7.9 kP
Hardness [4, 6]: 8.1 kP
Hardness [4, 7]: 8.1 kP
Hardness [4, 8]: 7.6 kP
Hardness [4, 9]: 9.3 kP
Hardness [4, 10]: 8.6 kP
Hardness [4, 11]: 8.0 kP
Hardness [4, 12]: 6.5 kP
Hardness [4, 13]: 8.5 kP
Hardness [4, 14]: 6.8 kP
Hardness [4, 15]: 9.1 kP
Hardness [4, 16]: 7.5 kP
Hardness [4, 17]: 7.2 kP
Hardness [4, 18]: 7.9 kP
Hardness [4, 19]: 5.7 kP
Hardness [4, 20]: 4.2 kP
Compound: CC(=O)Nc1ccc(O)cc1 [APAP, Acetaminophen]
